In patent US9339476B2, “Implantable meshes for controlling the movement of fluids” (Arch Biosurgery, Inc., priority 2013, dated 2016):

Key:
[1] = tested on: 4 mm diameter biopsy punch lesion of the liver's right lobe with brisk bleeding; test: Rat liver biopsy punch model, hemostasis; type: in vivo, Sprague Dawley rats
Protocol: (§1) A self-assembling peptide having the sequence RADARADARADARADA (RADA4; SEQ. ID. NO: 1) acetate salt was reconstituted in sterile water to 3%. The material was stored at […] in a cooler with cold pack over it until brought to the study facility. Lyo cakes of 3 vials were crushed using a spatula and then combined in 1 vial. The combined content was reconstituted with 1 mL volume of sterile water for injection. The lyophilized formulation went in solution easily in 1-2 minutes and was vortexed for 30 seconds before use.
(§2) Four female Sprague Dawley rats each weighing 300-320 g were anesthetized with a mixture of xylaxine/ketamine. When a suitable plane of anesthesia was reached, a ventral midline incision was made in the abdomen allowing for visualization and manipulation of the liver's right lobe. Further manipulation to expose the portal vein was performed to allow for withdrawal of 1 mL of blood for measurement of blood activated clotting time (ACT).
A wooden spatula was then placed behind the right lobe of the liver and a 4 mm diameter biopsy punch was used to remove a full thickness 4 mm diameter section of the liver resulting in a lesion with brisk bleeding.
Immediately, 0.5 mL of a 3% aqueous solution of pre-formulated RADA4 peptide reconstituted in sterile water was applied to the biopsy site using a 22½ gauge needle.

[2] = tested on: second 4 mm diameter biopsy punch lesion in the right lobe of the liver; test: Rat liver biopsy punch model, hemostasis in the presence of anticoagulant (heparin); type: in vivo, Sprague Dawley rats
Protocol: (§3) To determine whether hemostasis could be achieved in the presence of anticoagulant, heparin was then administered to the animal at a dose of 500 IU per kg body weight injected directly into the portal vein. Two minutes after heparin injection, a second 4 mm diameter biopsy punch lesion was made adjacent to the first lesion in the right lobe of the liver and 0.5 ml of a 3% aqueous RADA4 peptide solution was again added to the lesion.

[3] = Reconstitution of lyophilized formulation in sterile water for injection; type: physicochemical; conditions: lyo cakes of 3 vials combined, reconstituted with 1 mL sterile water for injection
Protocol: as §1

[4] = tested on: blood activated clotting time (ACT); test: Blood activated clotting time (ACT); type: in vivo, Sprague Dawley rats; conditions: 8 minutes following heparin injection (500 IU/kg, portal vein); baseline approximately 110 seconds
Protocol: as §2, §3

| Substance | time until bleeding stopped completely ([1]; 0.5 mL of 3% aqueous solution applied to 4 mm liver biopsy site, no anticoagulant) [s] | producing hemostasis (overall outcome) ([1]; 3% aqueous solution, absence of clinically significant anticoagulation) | stability of hemostasis at later assessment ([1]; 10 minutes following application, no anticoagulant) | time until bleeding stopped ([2]; 0.5 ml of 3% aqueous solution, lesion made two minutes after heparin 500 IU per kg into the portal vein) [s] | producing hemostasis (overall outcome) ([2]; 3% aqueous solution, presence of clinically significant anticoagulation) | stability of hemostasis at later assessment ([2]; at 10 minutes, after heparin 500 IU per kg) | time for lyophilized formulation to go in solution [3] [min] | ACT measurement [4] |
| --- | --- | --- | --- | --- | --- | --- | --- | --- |
| RADARADARADARADA [RADA4] | ≤ 30 | successful | stable without further bleeding | ≤ 30 | successful | stable | 1 to 2 | – |
| heparin | – | – | – | – | – | – | – | greater than 1,300 seconds |
